This is an account of results in article PMC6864647, “Synthesis and Antiviral Activity of Novel 1,3,4-Thiadiazole Inhibitors of DDX3X” (Molecules, 2019).

The nature of one data set: Water solubility assay. In kind it is physicochemical. Particulars: 27 °C, thermodynamic from solid, 1 mg in 1 mL water. On the procedure: […] After 24 h of stirring at 27 °C, the mixture was filtered and the quantity of solubilized compound determined by LC-MS-MS. […] By contrast, esters 30 and 31 due to their lipophilicity have values outside the recommended range […].
The appropriate (1 mg) was added to 1 mL of water. The sample was shaken in a shaker bath at room temperature for 24–36 h. The suspensions were filtered through a 0.45 μm nylon filter (Acrodisc, Sigma Aldrich, Milan, Italy) and the solubilized compound determined by LC-MS-MS assay. The determination was performed in triplicate. For the quantification, an LC-MS system consisting of a Varian apparatus (Varian Inc., Palo Alto, CA, USA), including a vacuum solvent degassing unit, two pumps (212-LC), a Triple Quadrupole MSD (Mod. 320-LC) mass spectrometer with ES interface, and Varian MS Workstation System Control Vers. 6.9 software, was used. Chromatographic separation was obtained while using a 3 μm particle size Pursuit C18 column (50 × 2.0 mm) (Varian). Column was equilibrated in Buffer B (aqueous solution of 0.1% formic acid) and eluted with a linear increase from 0% to 70% gradient of Buffer A (ACN) for 10 min. and subsequent increase up to 98% for additional 5 min. The instrument operated in positive mode and the following parameters were used: injection volume 5 μL, flow rate 0.3 mL/min, detector 1850 V, drying gas pressure 25.0 psi, desolvation temperature 300.0 °C, nebulizing gas 45.0 psi, needle 5000 V, and shield 600 V. Nebulizer gas and drying gas was Nitrogen. Argon was the collision gas at a pressure of 1.8 mTorr in the collision cell. Single compound quantification was performed in comparison with standard calibration curves in methanol.

A further data set concerns the target T1, DDX3X ATPase (Homo sapiens, UniProt O00571).
T1 construct: Recombinant his-tagged human full length DDX3X was cloned into the E. coli expression vector pET-30a(+); His tag; made in house; host or cells: Shuffle T7 E. coli
The data set can be described thus: DDX3X ATPase assay (ADP-Glo). The data set is classed as biochemical. Particulars: recombinant human DDX3X, 50 μM ATP; mean ± SD of three experiments; read-out: DDX3X ATPase Ki (apparent dissociation constant for inhibitor binding). Here is the method: Recombinant his-tagged human full length DDX3X was cloned into the E. coli expression vector pET-30a(+). Shuffle T7 E. coli cells were transformed with the plasmid and grown at 37 °C up to OD600 = 0.7. DDX3X expression was induced with 0.5 mM IPTG at 15 °C O/N. The cells were harvested by centrifugation, lysed, and the crude extract centrifuged at 100.000xg for 60 min. at 4 °C in a Beckman centrifuge before being loaded onto a FPLC Ni-NTA column (GE Healthcare). Column was equilibrated in Buffer A (50 mM Tris-HCl pH 8.0, 250 mM NaCl, 25 mM Imidazole, and 20% glycerol). After extensive washing in Buffer A, the column was eluted with a linear gradient in Buffer A from 25 mM to 250 mM Imidazole. Proteins in the eluted fractions were visualized on SDS-PAGE and then tested for the presence of DDX3X by Western blot with anti-DDX3X A300-475A(BETHYL) at 1:2000 dilution in 5% milk. Fractions containing the purest DDX3X protein were pooled and stored at −80 °C.
The ATPase assay was carried out by using the commercial kit Promega (Milan, Italy), ADP-Glo^TM Kinase Assay. Reaction was performed in 30 mM TrisHCl pH 8, 9 mM MgCl2, 0.05 mg/mL BSA, 50 μM ATP, and 4 μM of recombinant DDX3X. Reaction was performed following the ADP-Glo^TM Kinase Assay Protocol and luminescence was measured with MicroBeta TriLux (Perkin Elmer, Milan, Italy).
A general note: ADP-Glo first removes unused ATP, then detects ADP through luciferase.

A short description of data set [1]: Cytotoxicity assay in H9 cells (CellTiter-Glo 2.0). In kind it is cell-based, human. Particulars: human; non-infected H9 cells, 72 h. On the procedure:
(§1) Cytotoxicity in H9 cells was determined by using the CellTiter-Glo 2.0 assay (Promega). H9 cells were seeded at 40,000 cells/well in duplicate in the presence of serial two-fold dilutions of compounds (range 200–1.56 μM) and incubated for 72 h. Cell viability was calculated by measuring cellular ATP as a marker of metabolically active cells through a luciferase based chemical reaction and expressed as the concentration that reduce cell viability by 50%.

The test system of the next data set is H9 cells. Briefly: Cytotoxicity assay in H9 cells (CellTiter-Glo 2.0). In kind it is cell-based, human. Particulars: CC50 in H9 cells versus anti-HIV-1 IC50. On the procedure: as §1
In general terms: ATP-based viability assays read luminescence as a measure of living cells.

Data set [2] can be described thus: Parallel Artificial Membrane Permeability Assay (PAMPA). In kind it is in vitro ADME. Particulars: pH 7.4, 5 h. Here is the method:
Finally, we evaluated passive membrane permeability (AppP) while using Parallel Artificial Membrane Permeability Assay (PAMPA). The quantity of compound able to diffuse through a semipermeable artificial membrane was calculated by LC-MS-MS.
Donor solution (0.5 mM) was prepared by diluting 1 mM dimethylsulfoxide (DMSO) compound stock solution while using phosphate buffer (pH 7.4, 0.025 M). Filters were coated with 5 μL of a 1% (w/v) dodecane solution of phosphatidylcholine for intestinal permeability. Donor solution (150 μL) was added to each well of the filter plate. To each well of the acceptor plate was added 300 μL of solution (50% DMSO in phosphate buffer). All of the compounds were tested in three different plates on different days. The sandwich was incubated for 5 h at room temperature under gentle shaking. After the incubation time, the plates were separated, and samples were taken from both receiver and donor sides and analyzed while using LC with UV detection at 280 nm. LC analysis was performed with a PerkinElmer (series 200) instrument that was equipped with an UV detector (PerkinElmer 785A, UV/vis Detector). Chromatographic separation was conducted using a Polaris C18 column (150–4.6 mm, 5 μm particle size) at a flow rate of 0.8 mL min^−1 with a mobile phase composed of 60% ACN/40% H2O-formic acid 0.1% for all compounds. Permeability (Papp) was calculated according to the following equation with some modification to obtain permeability values in cm/s, (1) Papp=VDVA/(VD+VA)At−ln(1−r) where VA is the volume in the acceptor well, VD is the volume in the donor well (cm^3), A is the “effective area” of the membrane (cm^2), t is the incubation time (s), and r the ratio between drug concentration in the acceptor and equilibrium concentration of the drug in the total volume(VD + VA).
Drug concentration is estimated by using the peak area integration. Membrane retentions (%) were calculated according to the following equation:(2) %MR=[r−(D+A)]100/Eq where r is the ratio between drug concentration in the acceptor and equilibrium concentration, D, A, and Eq represented drug concentration in the donor, acceptor, and equilibrium solution, respectively.
Background: In PAMPA a lipid-coated filter parts donor from acceptor wells.

Another data set concerns HIV-1 (NL4-3). The data set can be described thus: Antiviral BiCycle assay, HIV-1 NL4-3 in H9 cells with TZM-bl readout. The data set is classed as cell-based. Particulars: 72 h, then TZM-bl reporter cells 48 h. On the procedure: The antiviral activity was evaluated by measuring the half maximal inhibitory concentration (IC50) values against the HIV-1 wild-type reference strain NL4-3 in a TZM-bl cell line based phenotypic assay, named BiCycle Assay. The method includes a first round of infection of human T cell lymphoma derived clone H9 at multiplicity of infection of 0.03 in the presence of serial dilution of compounds in a 96-well plate. After 72 h, 50 microliters of supernatants from each well were used to infect the TZM-bl cell line, which allow the quantitative analysis of HIV infection by measuring the expression of the luciferase gene integrated in the genome of the cells under the control of HIV-1 LTR promoter.
After 48 h, dose-response curves were generated by measuring reporter gene expression in each well by using the Bright-Glo Luciferase Assay (Promega) through the GloMax Discovery reader (Promega). Relative luminescence units measured in each well were elaborated with the GraphPad Software v.6.0 to calculate IC50 values. All the viruses and cell lines were obtained through the NIH AIDS Reagent Program (www.aidsreagent.org).

The next data set concerns HIV-1. More on the design: method as in PMID 18834110. Particulars: MT4 cells; read-out: EC50, inhibition of HIV-1 replication; cited from earlier work.
Another data set has as its target DDX3X. More on the design: method as in PMID 21698775. Particulars: cited from earlier work.

Molecules are shown by their SMILES. Read-outs that look alike come from different tables or passages of the source.

T1 sequence (O00571 whole entry): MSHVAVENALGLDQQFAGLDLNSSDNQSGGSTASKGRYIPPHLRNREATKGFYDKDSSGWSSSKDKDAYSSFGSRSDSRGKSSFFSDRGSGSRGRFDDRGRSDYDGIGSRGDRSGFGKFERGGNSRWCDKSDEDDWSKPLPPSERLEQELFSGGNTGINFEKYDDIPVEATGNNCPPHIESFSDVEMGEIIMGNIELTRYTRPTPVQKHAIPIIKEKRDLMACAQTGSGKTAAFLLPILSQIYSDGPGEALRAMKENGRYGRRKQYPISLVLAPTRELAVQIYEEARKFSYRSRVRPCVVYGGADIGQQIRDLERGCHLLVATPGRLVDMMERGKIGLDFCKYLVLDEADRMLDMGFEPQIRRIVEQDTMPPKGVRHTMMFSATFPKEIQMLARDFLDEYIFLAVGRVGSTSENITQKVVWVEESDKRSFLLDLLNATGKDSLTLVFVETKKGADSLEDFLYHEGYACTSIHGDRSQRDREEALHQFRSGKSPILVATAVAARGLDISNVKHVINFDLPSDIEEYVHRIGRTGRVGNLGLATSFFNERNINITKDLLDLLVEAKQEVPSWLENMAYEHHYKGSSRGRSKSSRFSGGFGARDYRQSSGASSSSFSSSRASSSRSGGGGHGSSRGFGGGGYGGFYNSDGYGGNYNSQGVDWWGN

A word on the CC50: it is the concentration that lowers cell viability or growth by half. Broadly, the IC50 is the midpoint of a concentration-inhibition curve. High values mean weaker potency, low ones greater potency. In the case of `O=C(O)c1ccccc1C(=O)Nc1nnc(-c2ccc(O)cc2)s1` [Compound 24, 2-((5-(4-Hydroxyphenyl)-1,3,4-thiadiazol-2-yl)carbamoyl)benzoic acid], the results for the solubility at 24 h in “Water solubility assay” (read-out: AqS (aqueous solubility)) and in “Water solubility assay” (read-out: AqS as Log of molar concentration (LogS) (converted)) were 27.8 µg/mL and 83.2 µM, respectively. Also, the Ki at DDX3X ATPase turned out to be 1.9 ± 0.4 µM. In addition, the CC50 at 72 h in data set [1] amounted to 125 µM. Besides, the “SI (selectivity index)” value in the data set with H9 cells amounted to 45. The “Percentage in parentheses beside AppP (membrane retention)” value in data set [2] is 0%. In data set [2] (room temperature, read-out: AppP (apparent permeability)), the Papp at 5 h, 0.5 mM is less than 0.1 ×10⁻⁶ cm/s. The IC50 was determined as 2.8 ± 1.5 µM with HIV-1 (NL4-3) (H9 cells) and 3.9 µM in the data set with HIV-1 (NL4-3) (Human immunodeficiency virus 1, NL43, H9 cells).

As a reminder, the EC50 is the concentration giving half of the maximal effect. Consider `O=C(CN1C(=O)/C(=C/c2cccc(Br)c2)SC1=S)Nc1ccccc1O` [FE15], for which, in the data set with HIV-1, the 50% effective concentration (EC50) is 86.7 µM.

Consider `O=C1/C(=C/c2c(NCCCO)nc3ccccn3c2=O)SC(=S)N1CCc1ccccc1` [FE109], for which the Ki on DDX3X is 0.2 µM.
